{"source": "patent US20250152633A1", "about": "“CELLS HAVING IMPROVED PROLIFERATIVE CAPACITY AND REDUCED CELLULAR SENESCENCE” (BOARD OF REGENTS, THE UNIVERSITY OF TEXAS SYSTEM, priority 2023, published 2025)", "key": {"[1]": {"test_system": "MSCs from aged donors", "experiment": "BrdU proliferation assay (DNA synthesis) after mechanical and chemical treatment", "format": "cell-based, human", "details": "for DNA synthesis (BrdU assay): co-treatment with brachial loading, 5 μM KU55933 or 5 mM NAC, aged donor MSCs, vs. static control", "method": "Cell lines and cell culture. Human mesenchymal stem cells (Promocell) were cultured in low glucose DMEM medium supplemented with 15% fetal bovine serum, L-glutamine and penicillin/streptomycin. Following trypsinization, cells were seeded on the membranes at 20,000 cells per cm^2 before mechanical loading. The cells were used between passages 4-6, unless otherwise specified. The MSCs were derived from a donor 1, unless otherwise specified. A subset of the studies were performed using MSCs from donor 2, or donor 3, or donor 4. A subset of the studies used MSCs derived from a young, healthy donor. Human umbilical vein endothelial cells (HUVECs; PromoCell GmbH) were cultured in MCDB 131 medium supplemented with 7.5% fetal bovine serum, L-glutamine and penicillin/streptomycin and EGM-2 SingleQuot Kit (Thermo Fisher Scientific, Inc.). All cells were cultured in an incubator at 37° C. under a 5% CO2 atmosphere.\nApplication of biomechanical treatment. Mechanical strain was applied to cell culture using a high throughput system described previously (Lee et al., 2013; Lee & Baker, 2015; Lee et al., 2020). Briefly, cells are cultured on custom made plates that are mounted on a system that applies strain. The cell culture plates were comprised of silicone membranes (0.005″ thickness; Specialty Manufacturing, Inc.) that are sandwiched between two plates, with silicone rubber gaskets at the interfaces to prevent leaking. These cell culture membranes are UV sterilized and coated with 50 μg/mL fibronectin overnight at 37° C. to allow cell adhesion. After cell attachment, the plates are mounted on to the top plate of the system using screws. To apply mechanical strain, a platen with 36 Teflon pistons is moved into the cell culture membrane. The motion is driven by a hygienically sealed, voice coil-type linear motor (Copley Controls). The platen is stabilized using six motion rails mounted with linear motion bearings. […]\nBrdU Proliferation Assay. […] Absorbance was read at 450 nm using a FlexStation-3 plate reader (Molecular Devices). […]"}, "[2]": {"test_system": "MSCs from an aged donor one", "experiment": "Western blotting of protein expression after treatment of MSCs", "format": "cell-based, human", "details": "for SIRT6 expression (Western blotting): brachial+NAC (5 mM) or KU55933 (5 μM) treatment; for DNA damage repair protein KU80 expression (Western blotting): brachial+NAC (5 mM) or brachial+KU55933 (5 μM), compared to control groups", "method": "Application of biomechanical treatment. Mechanical strain was applied to cell culture using a high throughput system described previously (Lee et al., 2013; Lee & Baker, 2015; Lee et al., 2020). Briefly, cells are cultured on custom made plates that are mounted on a system that applies strain. The cell culture plates were comprised of silicone membranes (0.005″ thickness; Specialty Manufacturing, Inc.) that are sandwiched between two plates, with silicone rubber gaskets at the interfaces to prevent leaking. These cell culture membranes are UV sterilized and coated with 50 μg/mL fibronectin overnight at 37° C. to allow cell adhesion. After cell attachment, the plates are mounted on to the top plate of the system using screws. To apply mechanical strain, a platen with 36 Teflon pistons is moved into the cell culture membrane. The motion is driven by a hygienically sealed, voice coil-type linear motor (Copley Controls). The platen is stabilized using six motion rails mounted with linear motion bearings. The hygienically sealed motor housing has chilled water running through in order to prevent overheating during operation. Unless otherwise specified, loading was applied for 4 hours per day for 7 days with or without 1 μm the EGFR/ErbB-2/ErbB-4 Inhibitor (CAS 881001-19-0; Table 3).\nCell lysis and immunoblotting. Following the treatments, the cells were lysed in 20 mM Tris with 150 mM NaCl, 1% Triton X-100, 0.1% SDS, 2 mM sodium orthovandate, 2 mM PMSF, 50 mM NaF and a protease inhibitor cocktail (Roche, Inc.). The proteins were separated on a NuPAGE 10% bis-tris midi gel (Novex) and transferred to nitrocellulose membrane using iBlot transfer stack (Novex). The membranes were blocked for one hour in 5% non-fat milk in PBS with 0.01% tween-20 (PBST). After washing twice in PBST, cells were incubated with primary antibodies (Table 1) overnight in 1% non-fat milk at 4° C. The membranes were washed with PBST and incubated at room temperature for two hours with secondary antibody. The membrane was treated with chemiluminescent substrate (SuperSignal West Femto; Thermo Fisher Scientific, Inc.) then imaged using a digital imaging system (Cell Biosciences, Inc.).\n(§1) Conditioning of hMSCs using biochemical factors. For mechanistic experiments involving chemical factors and biological inhibitors, cells were incubated with the chemical treatments as shown in Table 3. The cells were treated with mechanical loading for 4 hours/day under brachial waveform at 0.1 Hz and 7.5% maximum strain or cultured under static conditions. The culture media containing the treatments were replaced on day 3 and day 5 for all 7-day treatments."}, "[3]": {"test_system": "MSCs from young donors", "details": "1 μM inhibitor as cotreatment with brachial loading, tube formation assay, cited from earlier work"}, "[4]": {"test_system": "MSCs from young donors", "details": "1 μM inhibitor as cotreatment with brachial loading; cited from earlier work"}, "[5]": {"test_system": "MSCs from three young, healthy donors", "experiment": "RNA-seq analysis of senescence-related gene sets", "format": "cell-based, human", "details": "brachial loading and E/E inhibitor; young donor MSCs; age-, oncogenic-, stress-, developmental- and inflammation-related senescence gene sets", "method": "To investigate the treatments' effects on gene expression patterns that are correlated with senescence in MSCs, MSCs were obtained from three young, healthy donors, and conditioned with brachial loading and E/E inhibitor. Following the treatments, RNA-seq analysis was performed on the cells, and the expression of several key gene sets related to various mechanisms of senescence in MSCs was evaluated. These gene sets were identified through a thorough investigation of the literature as key mediators of MSC senescence, and the expression pattern of each gene as it pertains to MSC senescence was documented (Zhou et al., 2020; Brandl et al., 2011; Turinetto et al., 2016; Ozkul & Galderisi, 2016; Fridman & Tainsky, 2008; Ki et al., 2014; Cakouros & Gronthos, 2019; Peffers et al., 2016). […] Next, a gene set enrichment analysis (GSEA) was performed on the RNA-seq data. […] In all three senescence-related gene sets, a reduction in senescence related genes with brachial mechanical loading was observed (FIG. 1).\nRNA Sequencing and Analysis. […] For sequencing, single reads of 50 base pairs were performed after poly-A mRNA capture using the Poly(A) Tailing Kit (Ambion) and Ultra II Directional RNA Library Prep Kit (NEB) to isolate mRNA and perform dUTP directional preparation of the mRNA library. […]"}, "[6]": {"test_system": "MSCs from an aged donor", "experiment": "p-γ-H2AX DNA double-strand break repair foci immunostaining", "format": "cell-based, human", "details": "for p-γ-H2AX foci, treatment of static control cells vs. static treatment alone: 4 hours static, 3 μM GsMTx4, 2 μM Dooku 1", "method": "Immunocytochemical staining on silicone membranes. Following the treatments, the cells were fixed in 4% paraformaldehyde in PBS for 10 minutes followed by washing and permeabilization with 0.1% Triton X-100 PBS for 5 minutes. Next, samples were blocked with PBS containing 5% FBS and 1% BSA for 40 minutes. After washing, cells were incubated with primary antibodies (see Table 2 for specific antibodies and concentrations) in PBS with 1% BSA overnight at 4° C. The samples were then washed twice in PBS with 1% BSA and incubated with secondary antibodies in PBS with 1% BSA for 2 hours in a light protected environment. Cells treated with extensive washes with PBS with 1% BSA prior to mounting in anti-fade media (Vector Laboratories, Inc.). The samples were then imaged using confocal microscopy with a LSM 710 laser scanning confocal microscope (Carl Zeiss, Inc.).\np-γ-H2AX Foci Analysis. Following confocal imaging, images were analyzed with FIJI software to count p-γ-H2AX histone foci. Three-dimensional image stacks were maximum intensity projected to generate two-dimensional images with 12-bit range of 0-4095. Background signal outside of nuclei boundaries was measured and subtracted from the image. Individual cell nuclei regions of interest were selected, and an intensity threshold of 300 bits was applied. The Analyze Particle plugin was applied to count the p-γ-H2AX foci in each nucleus, with a minimum particle size of 0.5 μm applied. At least 100 individual cell nuclei were analyzed for each treatment group to calculate the mean foci count per cell, mean foci count per nuclear area, and standard errors.\nas §1"}, "[7]": {"test_system": "aged MSCs", "experiment": "β-Galactosidase staining of senescent cell phenotypes", "format": "cell-based, human", "details": "5 mM NAC or 5 μM KU55933, with or without brachial loading; vs. static control", "method": "Conditioning of hMSCs using biochemical factors. For mechanistic experiments involving chemical factors and biological inhibitors, cells were incubated with the chemical treatments as shown in Table 3. The cells were treated with mechanical loading for 4 hours/day under brachial waveform at 0.1 Hz and 7.5% maximum strain or cultured under static conditions. The culture media containing the treatments were replaced on day 3 and day 5 for all 7-day treatments. β-Galactosidase Analysis. Following the treatments, cell culture media was removed, and cells were washed once with PBS. Cells were fixed and stained for β-Galactosidase following the protocol of the Senescence β-Galactosidase Staining Kit (Cell Signaling Technologies). Following staining, cells were stored with 70% glycerol and imaged using a light microscope (Meiji, Inc.). Images were post-processed in Adobe Photoshop to increase image contrast and visibility of β-Galactosidase+ cells. Total cells and β-Galactosidase+ cells were manually counted in FIJI, with at least 1,000 cells counted per treatment group."}}, "note": "“Also recorded” adds a separate entry of the source. Like-named read-outs stand apart in the source and are kept apart here. Bridge positions count the residues as written; N and C are the ends. Ends that are not written are not given here."}
{"compound": "O=c1cc(-c2cccc3c2Sc2ccccc2S3)oc(N2CCOCC2)c1", "note": "[KU55933]", "values": [{"measurement": "DNA synthesis (BrdU assay)", "setting": "[1]", "result": "significantly higher DNA synthesis"}, {"measurement": "SIRT6 expression (Western blotting)", "setting": "[2]; vs. static control", "result": "no significant change"}, {"measurement": "DNA damage repair protein KU80 expression (Western blotting)", "setting": "[2]", "result": "remained statistically unchanged"}]}
{"compound": "CC#CC(=O)Nc1cc2c(Nc3ccc(F)c(Cl)c3)ncnc2cn1", "note": "[E/E inhibitor]", "values": [{"measurement": "DNA synthesis (BrdU proliferation assay)", "setting": "[1]; brachial loading 7.5% strain, 4 hours per day for 7 days + 1 μM E/E inhibitor, MSCs from three donors (68-92 years), relative to static control", "result": "increased DNA synthesis in two of three donor lines"}, {"measurement": "angiogenic activity / angiogenic properties of MSCs", "setting": "[3]; listed as EGFR/ErbB-2/4 (E/E) inhibitor", "result": "enhanced angiogenic activity"}, {"measurement": "angiogenic activity / angiogenic properties of MSCs", "setting": "[3]; listed as EGFR/ErbB-2/4 (E/E)", "result": "synergistically enhances the angiogenic properties"}, {"measurement": "MSCs that expressed the markers for both endothelial cells and pericytes", "setting": "[4]", "result": "dramatic increase"}, {"measurement": "expression of antioxidant enzyme SOD1 (Western blotting)", "setting": "[2]; brachial loading and E/E inhibitor treatments, aged donor one MSCs", "result": "significantly upregulated expression"}, {"measurement": "oxidative stress signaling protein expression, FOX0 transcription factors (Western blotting)", "setting": "[2]; brachial+E/E inhibitor, 4 hours per day for 7 days, aged donor one MSCs, vs. static control", "result": "upregulation of FOX01, p-FOX01, FOX03a, p-FOX03a, and p-FOX04"}, {"measurement": "Sirtuin protein expression (Western blotting)", "setting": "[2]; brachial+E/E treatment, donor one MSCs, in comparison to static control", "result": "upregulation of p-SIRT1, SIRT6, and SIRT7"}, {"measurement": "senescence-related gene expression patterns (RNA-seq)", "setting": "[5]", "result": "reversed the effects implicated by senescence"}]}
{"compound": "CC(Nc1nc(N2CCCC2)nc2ccccc12)c1ccccc1", "note": "(stereo not drawn) [Importazole]", "values": [{"measurement": "p-γ-H2AX foci, co-treatment with brachial loading vs. brachial loading alone", "setting": "[6]; 4 hours brachial loading, 40 μM Importazole", "result": "significantly more p-γ-H2AX foci than treatment with brachial loading alone"}]}
{"compound": "Dooku1", "values": [{"measurement": "p-γ-H2AX foci, treatment of static control cells vs. static treatment alone", "setting": "[6]", "result": "significantly more p-γ-H2AX foci than static treatment alone"}]}
{"compound": "GsMTx4: directly inhibits Piezo1 channel activity (Tocris 4912) (GCLEFWWKCNPNDDKCCRPKLKCSKLFKLCNFSF; disulfide 16-30, 2-17, 9-23; not fully specified (C-terminus); ends not checked; UniProt Q7YT39 47-80, looked up)", "values": [{"measurement": "p-γ-H2AX foci, treatment of static control cells vs. static treatment alone", "setting": "[6]", "result": "significantly more p-γ-H2AX foci than static treatment alone"}]}
{"compound": "CC(=O)N[C@@H](CS)C(=O)O", "note": "[NAC, N-acetyl-L cysteine]", "values": [{"measurement": "DNA synthesis (BrdU assay)", "setting": "[1]", "result": "not under brachial+NAC treatment; also recorded: a reduction of proliferative enhancement was observed"}, {"measurement": "percentage of β-galactosidase+ cells", "setting": "[7]", "result": "significant reduction"}, {"measurement": "SIRT6 expression (Western blotting)", "setting": "[2]; vs. static control", "result": "significant upregulation"}, {"measurement": "DNA damage repair protein KU80 expression (Western blotting)", "setting": "[2]", "result": "remained statistically unchanged"}]}
